Measured values as given in patent US20260241046A1, “PROSTATE-SPECIFIC MEMBRANE ANTIGEN RECEPTOR-TARGETING RADIOPHARMACEUTICALS AND USES THEREOF” (Nuclidium AG, priority 2024, published 2026).

Target: T1, PSMA-positive malignant lesions (Homo sapiens, UniProt Q04609)
T1 construct: from tissue; host or cells: prostate cancer lesions (bone and nodal metastases, prostate) of eight trial subjects
Assay: Human clinical trial, PET/CT comparison between Pylarify and [^61Cu]Cu-NODAGA-PSMA I&T
Assay type: in vivo
Description: This is a phase I, single center, non-randomized trial with 6-10 subjects. Each subject will have biopsy-proven prostate cancer visualized on FDA-approved ^18F-piflufolastat PET/CT performed within 3 weeks of trial recruitment. Each subject will receive a single administration of [^61Cu]Cu-NODAGA-PSMA I&T, followed by PET/CT imaging. Safety of [^61Cu]Cu-NODAGA-PSMA I&T will be evaluated by monitoring for unlikely adverse effects.
Subjects will undergo administration of 10 mL of 100-300 MBq (2.7-8.1 mCi) [^61Cu]Cu-NODAGA-PSMA I&T composition intravenously described in Table 20, followed by PET/CT imaging 60 (+/−10) minutes post radiotracer administration.
• Perform and record vital signs. • Place IV catheter. • Obtain blood for whole blood and plasma radioactivity counts prior to radiotracer administration and at 3-5 time points post radiotracer administration, from the following time ranges • a. 15 minutes (+/−10 minutes) • b. 30 minutes (+/−10 minutes) • c. 60 minutes (+/−15 minutes) • d. 120-240 minutes • e. 240-420 minutes • Administer 100-300 MBq ([…]) of [^61Cu]Cu-NODAGA-PSMA I&T composition intravenously. • Perform and record vital signs and assess for adverse reactions 30-60 minutes and 120-240 minutes post radiotracer administration. • Perform PET/CT imaging at 2 or 3 time points post radiotracer administration, from the following time ranges. • a. 60 minutes (+/−15 minutes) • b. 120-240 minutes • c. 240-420 minutes • Perform and record vital signs and assess for adverse reactions 120 (+/−10 minutes) post radiotracer administration. Visit 3—Day after Phone Call • Record any adverse reactions.
For the secondary objective of effectiveness, the number of suspected PSMA-positive malignant lesions will be calculated in both the standard-of-care ^18F-Piflufolastat PET/CT and the experimental [^61Cu]Cu-NODAGA-PSMA I&T PET/CT. The percentage of patients with any suspected PSMA-positive malignant lesions will be determined for each radiotracer. To assess whether the distribution of the number of lesions was higher with ^18F-Piflufolastat PET/CT or [^61Cu]Cu-NODAGA-PSMA I&T, 1-sided Wilcoxon […] tests for paired data will be performed. To account for the small sample size, results with a P value of less than 0.1 will be considered statistically significant.

T1 sequence (Q04609 whole entry): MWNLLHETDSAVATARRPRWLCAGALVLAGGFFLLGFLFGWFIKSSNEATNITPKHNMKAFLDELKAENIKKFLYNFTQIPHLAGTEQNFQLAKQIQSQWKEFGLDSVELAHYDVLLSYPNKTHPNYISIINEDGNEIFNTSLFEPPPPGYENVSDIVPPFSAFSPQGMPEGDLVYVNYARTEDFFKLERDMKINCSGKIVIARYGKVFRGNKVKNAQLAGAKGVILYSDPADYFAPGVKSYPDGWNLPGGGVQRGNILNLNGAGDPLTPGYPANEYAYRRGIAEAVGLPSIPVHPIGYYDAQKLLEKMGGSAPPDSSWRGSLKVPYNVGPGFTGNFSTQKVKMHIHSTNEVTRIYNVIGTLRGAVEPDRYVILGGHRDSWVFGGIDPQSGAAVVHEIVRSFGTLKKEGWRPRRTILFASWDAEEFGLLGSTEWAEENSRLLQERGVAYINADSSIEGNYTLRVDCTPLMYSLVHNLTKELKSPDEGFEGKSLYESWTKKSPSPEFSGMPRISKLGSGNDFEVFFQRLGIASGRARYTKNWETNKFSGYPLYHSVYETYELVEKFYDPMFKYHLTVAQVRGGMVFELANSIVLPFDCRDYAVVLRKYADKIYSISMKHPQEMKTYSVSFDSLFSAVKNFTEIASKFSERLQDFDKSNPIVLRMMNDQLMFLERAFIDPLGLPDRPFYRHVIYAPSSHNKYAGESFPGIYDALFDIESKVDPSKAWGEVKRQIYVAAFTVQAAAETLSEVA

O=C([O-])CN1CCN(CC(=O)[O-])CCN([C@H](CCC(=O)N[C@H](Cc2ccc(O)c(I)c2)C(=O)N[C@H](Cc2ccccc2)C(=O)N[C@H](CCCCNC(=O)CCCCCCC(=O)NCCCC[C@H](NC(=O)N[C@@H](CCC(=O)O)C(=O)O)C(=O)O)C(=O)O)C(=O)O)CC1.[61Cu+2] [[^61Cu]Cu-NODAGA-PSMA I&T]
Concordance (Subject 1): 100% | % difference from Pylarify results at 1 hour (Subject 1, 1 hour): (12%) | New Lesions Detected with [^61Cu]Cu-NODAGA-PSMA I&T (Subject 1, 1 hour): 5 | Tumor-to-Background Ratio with [^61Cu]Cu-NODAGA-PSMA I&T (Subject 1, 1 hour): 59.9 | % difference from Pylarify results at 1 hour (Subject 1, 2 hour): (115%) | New Lesions Detected with [^61Cu]Cu-NODAGA-PSMA I&T (Subject 1, 2 hour): 7 | Tumor-to-Background Ratio with [^61Cu]Cu-NODAGA-PSMA I&T (Subject 1, 2 hour): 114.5 | % difference from Pylarify results at 1 hour (Subject 1, 4 hour): (154%) | New Lesions Detected with [^61Cu]Cu-NODAGA-PSMA I&T (Subject 1, 4 hour): 8 | Tumor-to-Background Ratio with [^61Cu]Cu-NODAGA-PSMA I&T (Subject 1, 4 hour): 135.5 | Concordance (Subject 2): 100% | % difference from Pylarify results at 1 hour (Subject 2, 1 hour): (37%) | New Lesions Detected with [^61Cu]Cu-NODAGA-PSMA I&T (Subject 2, 1 hour): 0 | Tumor-to-Background Ratio with [^61Cu]Cu-NODAGA-PSMA I&T (Subject 2, 1 hour): 5.3 | % difference from Pylarify results at 1 hour (Subject 2, 2 hour): (−13%) | New Lesions Detected with [^61Cu]Cu-NODAGA-PSMA I&T (Subject 2, 2 hour): 0 | Tumor-to-Background Ratio with [^61Cu]Cu-NODAGA-PSMA I&T (Subject 2, 2 hour): 3.4 | % difference from Pylarify results at 1 hour (Subject 2, 4 hour): (−43%) | New Lesions Detected with [^61Cu]Cu-NODAGA-PSMA I&T (Subject 2, 4 hour): 0 | Tumor-to-Background Ratio with [^61Cu]Cu-NODAGA-PSMA I&T (Subject 2, 4 hour): 2.2 | Concordance (Subject 3): 100% | % difference from Pylarify results at 1 hour (Subject 3, 1 hour): (52%) | New Lesions Detected with [^61Cu]Cu-NODAGA-PSMA I&T (Subject 3, 1 hour): 1 | Tumor-to-Background Ratio with [^61Cu]Cu-NODAGA-PSMA I&T (Subject 3, 1 hour): 9.3 | % difference from Pylarify results at 1 hour (Subject 3, 2 hour): (9%) | New Lesions Detected with [^61Cu]Cu-NODAGA-PSMA I&T (Subject 3, 2 hour): 1 | Tumor-to-Background Ratio with [^61Cu]Cu-NODAGA-PSMA I&T (Subject 3, 2 hour): 6.7 | % difference from Pylarify results at 1 hour (Subject 3, 4 hour): (274%) | New Lesions Detected with [^61Cu]Cu-NODAGA-PSMA I&T (Subject 3, 4 hour): 3 | Tumor-to-Background Ratio with [^61Cu]Cu-NODAGA-PSMA I&T (Subject 3, 4 hour): 23.0 | Concordance (Subject 4): 100% | % difference from Pylarify results at 1 hour (Subject 4, 1 hour): (64%) | New Lesions Detected with [^61Cu]Cu-NODAGA-PSMA I&T (Subject 4, 1 hour): 0 | Tumor-to-Background Ratio with [^61Cu]Cu-NODAGA-PSMA I&T (Subject 4, 1 hour): 126.2 | % difference from Pylarify results at 1 hour (Subject 4, 2 hour): (110%) | New Lesions Detected with [^61Cu]Cu-NODAGA-PSMA I&T (Subject 4, 2 hour): 2 | Tumor-to-Background Ratio with [^61Cu]Cu-NODAGA-PSMA I&T (Subject 4, 2 hour): 161.4 | % difference from Pylarify results at 1 hour (Subject 4, 4 hour): (98%) | New Lesions Detected with [^61Cu]Cu-NODAGA-PSMA I&T (Subject 4, 4 hour): 10 | Tumor-to-Background Ratio with [^61Cu]Cu-NODAGA-PSMA I&T (Subject 4, 4 hour): 152.8 | Concordance (Subject 5): 100% | % difference from Pylarify results at 1 hour (Subject 5, 1 hour): (98%) | New Lesions Detected with [^61Cu]Cu-NODAGA-PSMA I&T (Subject 5, 1 hour): 0 | Tumor-to-Background Ratio with [^61Cu]Cu-NODAGA-PSMA I&T (Subject 5, 1 hour): 53.3 | % difference from Pylarify results at 1 hour (Subject 5, 2 hour): (154%) | New Lesions Detected with [^61Cu]Cu-NODAGA-PSMA I&T (Subject 5, 2 hour): 0 | Tumor-to-Background Ratio with [^61Cu]Cu-NODAGA-PSMA I&T (Subject 5, 2 hour): 68.3 | % difference from Pylarify results at 1 hour (Subject 5, 4 hour): (160%) | New Lesions Detected with [^61Cu]Cu-NODAGA-PSMA I&T (Subject 5, 4 hour): 0 | Tumor-to-Background Ratio with [^61Cu]Cu-NODAGA-PSMA I&T (Subject 5, 4 hour): 70.0 | Concordance (Subject 6): 100% | % difference from Pylarify results at 1 hour (Subject 6, 1 hour): (60%) | New Lesions Detected with [^61Cu]Cu-NODAGA-PSMA I&T (Subject 6, 1 hour): 0 | Tumor-to-Background Ratio with [^61Cu]Cu-NODAGA-PSMA I&T (Subject 6, 1 hour): 11.3 | % difference from Pylarify results at 1 hour (Subject 6, 2 hour): (126%) | New Lesions Detected with [^61Cu]Cu-NODAGA-PSMA I&T (Subject 6, 2 hour): 0 | Tumor-to-Background Ratio with [^61Cu]Cu-NODAGA-PSMA I&T (Subject 6, 2 hour): 16.0 | % difference from Pylarify results at 1 hour (Subject 6, 4 hour): (230%) | New Lesions Detected with [^61Cu]Cu-NODAGA-PSMA I&T (Subject 6, 4 hour): 0 | Tumor-to-Background Ratio with [^61Cu]Cu-NODAGA-PSMA I&T (Subject 6, 4 hour): 23.3 | Concordance (Subject 7): 100% | % difference from Pylarify results at 1 hour (Subject 7, 1 hour): (45%) | New Lesions Detected with [^61Cu]Cu-NODAGA-PSMA I&T (Subject 7, 1 hour): 3 | Tumor-to-Background Ratio with [^61Cu]Cu-NODAGA-PSMA I&T (Subject 7, 1 hour): 5.6 | % difference from Pylarify results at 1 hour (Subject 7, 2 hour): (70%) | New Lesions Detected with [^61Cu]Cu-NODAGA-PSMA I&T (Subject 7, 2 hour): 3 | Tumor-to-Background Ratio with [^61Cu]Cu-NODAGA-PSMA I&T (Subject 7, 2 hour): 6.6 | % difference from Pylarify results at 1 hour (Subject 7, 4 hour): (287%) | New Lesions Detected with [^61Cu]Cu-NODAGA-PSMA I&T (Subject 7, 4 hour): 5 | Tumor-to-Background Ratio with [^61Cu]Cu-NODAGA-PSMA I&T (Subject 7, 4 hour): 15.0 | Concordance (Subject 8): 100% | % difference from Pylarify results at 1 hour (Subject 8, 1 hour): (−10%) | New Lesions Detected with [^61Cu]Cu-NODAGA-PSMA I&T (Subject 8, 1 hour): 0 | Tumor-to-Background Ratio with [^61Cu]Cu-NODAGA-PSMA I&T (Subject 8, 1 hour): 24.2 | % difference from Pylarify results at 1 hour (Subject 8, 2 hour): (29%) | New Lesions Detected with [^61Cu]Cu-NODAGA-PSMA I&T (Subject 8, 2 hour): 0 | Tumor-to-Background Ratio with [^61Cu]Cu-NODAGA-PSMA I&T (Subject 8, 2 hour): 34.5 | % difference from Pylarify results at 1 hour (Subject 8, 4 hour): (123%) | New Lesions Detected with [^61Cu]Cu-NODAGA-PSMA I&T (Subject 8, 4 hour): 0 | Tumor-to-Background Ratio with [^61Cu]Cu-NODAGA-PSMA I&T (Subject 8, 4 hour): 59.7 | metastases visualized compared with Pylarify PET/CT (Subject #1): More osseous metastases were visualized | metastases visualized compared with Pylarify PET/CT (Subject #2): Same number of metastases were observed | pelvic nodal metastases seen on PET/CT (Subject #3, 4 hours): 5 | metastases visualized compared with Pylarify PET/CT (Subject #4): More osseous metastases were observed | metastases visualized compared with Pylarify PET/CT (Subject #5): Equal number of osseous metastases were observed | metastases visualized compared with Pylarify PET/CT (Subject #6): One avid 0.4 cm left pelvic sidewall lymph node seen on both | metastases visualized compared with Pylarify PET/CT (Subject #7): More osseous metastases were detected | metastases visualized compared with Pylarify PET/CT (Subject #8): Solitary avid osseous metastasis were observed in both exams | detection rate of metastatic lesions compared with Pylarify (eight subjects): higher detection rate of metastatic lesions | higher tumor-to-background ratio than Pylarify, on average (eight subjects): 90%
